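Five compound concentrations were applied to cells in 96-well plates for 48 hours; endpoints were derived by simple linear interpolation of the resulting dose-response curve. GI50 = concentration required for 50% inhibition of growth.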 Activity calls are given as the source filed them. Rule as the data show it: active = GI50 up to about 1.1 µM and inactive = higher.
Tests used:
Assay in all cases: NCI-60 cell line screen, 48 h
HL-60 = system: HL-60
COLO 205 = system: COLO 205
KM12 = system: KM12
SW-620 = system: SW-620
HCT-15 = system: HCT-15
SNB-19 = system: SNB-19
ACHN = system: ACHN
SK-MEL-5 = system: SK-MEL-5
M14 = system: M14
OVCAR-4 = system: OVCAR-4
UACC-257 = system: UACC-257
SNB-75 = system: SNB-75
A498 = system: A498
HCC 2998 = system: HCC 2998
RPMI-8226 = system: RPMI-8226
LOX IMVI = system: LOX IMVI
UACC-62 = system: UACC-62
DMS-114 = system: DMS-114
SF-539 = system: SF-539
SK-MEL-2 = system: SK-MEL-2
786-0 = system: 786-0
SF-268 = system: SF-268
Malme-3M = system: Malme-3M
CAKI-1 = system: CAKI-1
SF-295 = system: SF-295
OVCAR-5 = system: OVCAR-5
IGROV-1 = system: IGROV-1
HCT-116 = system: HCT-116
XF498 = system: XF498
LXFL 529 = system: LXFL 529
SNB-78 = system: SNB-78
M19-MEL = system: M19-MEL
UO-31 = system: UO-31
OVCAR-8 = system: OVCAR-8
KM-20L2 = system: KM-20L2
NCI-H460 = system: NCI-H460
DLD-1 = system: DLD-1
OVCAR-3 = system: OVCAR-3
HOP-18 = system: HOP-18
SN12C = system: SN12C
SK-OV-3 = system: SK-OV-3
A549 = system: A549
HOP-62 = system: HOP-62
NCI-H522 = system: NCI-H522
RXF 393 = system: RXF 393
EKVX = system: EKVX
CCRF-CEM = system: CCRF-CEM
SK-MEL-28 = system: SK-MEL-28
MOLT-4 = system: MOLT-4
DMS-273 = system: DMS-273
U-251 = system: U-251
TK-10 = system: TK-10
NCI-H226 = system: NCI-H226
K562 = system: K562
SR = system: SR
NCI-H23 = system: NCI-H23
HOP-92 = system: HOP-92
HT-29 = system: HT-29

SMILES: O=C(/C=C/c1ccccc1Cl)NC1C=Nc2ccc([N+](=O)[O-])cc2NC1 (stereo unspecified)
- GI50 (HL-60): 49.2 µM (inactive)
- GI50 (COLO 205): 39.5 µM (inactive)
- GI50 (KM12): 34.4 µM (inactive)
- GI50 (SW-620): 4.25 µM (inactive)
- GI50 (HCT-15): 35.9 µM
- GI50 (SNB-19): > 100 µM (inactive)
- GI50 (ACHN): 39.7 µM (inactive)
- GI50 (SK-MEL-5): > 100 µM (inactive)
- GI50 (M14): > 100 µM (inactive)
- GI50 (OVCAR-4): 78.3 µM (inactive)
- GI50 (UACC-257): 89.3 µM (inactive)
- GI50 (SNB-75): 90.8 µM (inactive)
- GI50 (A498): > 100 µM (inactive)
- GI50 (HCC 2998): > 100 µM (inactive)
- GI50 (RPMI-8226): 30.8 µM (inactive)
- GI50 (LOX IMVI): 39.4 µM (inactive)
- GI50 (UACC-62): > 100 µM (inactive)
- GI50 (DMS-114): 48.4 µM (inactive)
- GI50 (SF-539): > 100 µM (inactive)
- GI50 (SK-MEL-2): > 100 µM (inactive)
- GI50 (786-0): 44.8 µM (inactive)
- GI50 (SF-268): > 100 µM (inactive)
- GI50 (Malme-3M): > 100 µM (inactive)
- GI50 (CAKI-1): 66.8 µM (inactive)
- GI50 (SF-295): > 100 µM (inactive)
- GI50 (OVCAR-5): > 100 µM (inactive)
- GI50 (IGROV-1): 88.7 µM (inactive)
- GI50 (HCT-116): 59.6 µM (inactive)
- GI50 (XF498): > 100 µM (inactive)
- GI50 (LXFL 529): 43.2 µM (inactive)
- GI50 (SNB-78): > 100 µM (inactive)
- GI50 (M19-MEL): 53.2 µM (inactive)
- GI50 (UO-31): 24.4 µM (inactive)
- GI50 (OVCAR-8): 55.8 µM (inactive)
- GI50 (KM-20L2): > 100 µM (inactive)
- GI50 (NCI-H460): 47 µM (inactive)
- GI50 (DLD-1): 48.6 µM (inactive)
- GI50 (OVCAR-3): 42.3 µM (inactive)
- GI50 (HOP-18): > 100 µM (inactive)
- GI50 (SN12C): 98.6 µM (inactive)
- GI50 (SK-OV-3): > 100 µM (inactive)
- GI50 (A549): > 100 µM (inactive)
- GI50 (HOP-62): > 100 µM (inactive)
- GI50 (NCI-H522): 22.6 µM (inactive)
- GI50 (RXF 393): 97.7 µM (inactive)
- GI50 (EKVX): > 100 µM (inactive)
- GI50 (CCRF-CEM): 12.7 µM (inactive)
- GI50 (SK-MEL-28): > 100 µM (inactive)
- GI50 (MOLT-4): 13.4 µM (inactive)
- GI50 (DMS-273): > 100 µM (inactive)
- GI50 (U-251): 35.3 µM (inactive)
- GI50 (TK-10): > 100 µM (inactive)
- GI50 (NCI-H226): > 100 µM (inactive)
- GI50 (K562): 46.1 µM (inactive)
- GI50 (SR): 14 µM (inactive)

SMILES: Cn1c(-c2ccccc2)c/c(=N\NS(C)(=O)=O)c2cc(S(=O)(=O)O)ccc21
- GI50 (HL-60): > 100 µM (inactive)
- GI50 (COLO 205): > 100 µM (inactive)
- GI50 (KM12): > 100 µM (inactive)
- GI50 (SW-620): > 100 µM (inactive)
- GI50 (HCT-15): > 100 µM
- GI50 (NCI-H23): > 100 µM (inactive)
- GI50 (SNB-19): > 100 µM (inactive)
- GI50 (ACHN): > 100 µM (inactive)
- GI50 (SK-MEL-5): > 100 µM (inactive)
- GI50 (M14): > 100 µM (inactive)
- GI50 (OVCAR-4): > 100 µM (inactive)
- GI50 (UACC-257): > 100 µM (inactive)
- GI50 (SNB-75): > 100 µM (inactive)
- GI50 (HCC 2998): > 100 µM (inactive)
- GI50 (RPMI-8226): > 100 µM (inactive)
- GI50 (LOX IMVI): > 100 µM (inactive)
- GI50 (UACC-62): > 100 µM (inactive)
- GI50 (DMS-114): > 100 µM (inactive)
- GI50 (SF-539): > 100 µM (inactive)
- GI50 (SK-MEL-2): > 100 µM (inactive)
- GI50 (786-0): > 100 µM (inactive)
- GI50 (SF-268): > 100 µM (inactive)
- GI50 (Malme-3M): > 100 µM (inactive)
- GI50 (CAKI-1): > 100 µM (inactive)
- GI50 (SF-295): > 100 µM (inactive)
- GI50 (OVCAR-5): > 100 µM (inactive)
- GI50 (IGROV-1): > 100 µM (inactive)
- GI50 (HCT-116): > 100 µM (inactive)
- GI50 (XF498): > 100 µM (inactive)
- GI50 (LXFL 529): > 100 µM (inactive)
- GI50 (SNB-78): > 100 µM (inactive)
- GI50 (M19-MEL): > 100 µM (inactive)
- GI50 (UO-31): > 100 µM (inactive)
- GI50 (OVCAR-8): > 100 µM (inactive)
- GI50 (KM-20L2): > 100 µM (inactive)
- GI50 (NCI-H460): > 100 µM (inactive)
- GI50 (DLD-1): > 100 µM (inactive)
- GI50 (OVCAR-3): > 100 µM (inactive)
- GI50 (HOP-92): > 100 µM (inactive)
- GI50 (HOP-18): > 100 µM (inactive)
- GI50 (SN12C): > 100 µM (inactive)
- GI50 (SK-OV-3): > 100 µM (inactive)
- GI50 (A549): > 100 µM (inactive)
- GI50 (HOP-62): > 100 µM (inactive)
- GI50 (NCI-H522): > 100 µM (inactive)
- GI50 (RXF 393): > 100 µM (inactive)
- GI50 (EKVX): > 100 µM (inactive)
- GI50 (HT-29): > 100 µM (inactive)
- GI50 (CCRF-CEM): > 100 µM (inactive)
- GI50 (SK-MEL-28): > 100 µM (inactive)
- GI50 (MOLT-4): > 100 µM (inactive)
- GI50 (DMS-273): > 100 µM (inactive)
- GI50 (U-251): > 100 µM (inactive)
- GI50 (TK-10): > 100 µM (inactive)
- GI50 (NCI-H226): > 100 µM (inactive)
- GI50 (K562): > 100 µM (inactive)
- GI50 (SR): > 100 µM (inactive)

SMILES: O=S(=O)(c1ccccc1)c1nccs1
- GI50 (HL-60): > 100 µM (inactive)
- GI50 (COLO 205): > 100 µM (inactive)
- GI50 (KM12): > 100 µM (inactive)
- GI50 (SW-620): > 100 µM (inactive)
- GI50 (HCT-15): > 100 µM
- GI50 (NCI-H23): > 100 µM (inactive)
- GI50 (SNB-19): > 100 µM (inactive)
- GI50 (ACHN): > 100 µM (inactive)
- GI50 (SK-MEL-5): > 100 µM (inactive)
- GI50 (M14): > 100 µM (inactive)
- GI50 (OVCAR-4): > 100 µM (inactive)
- GI50 (UACC-257): > 100 µM (inactive)
- GI50 (SNB-75): > 100 µM (inactive)
- GI50 (A498): > 100 µM (inactive)
- GI50 (HCC 2998): > 100 µM (inactive)
- GI50 (RPMI-8226): > 100 µM (inactive)
- GI50 (LOX IMVI): > 100 µM (inactive)
- GI50 (UACC-62): > 100 µM (inactive)
- GI50 (DMS-114): > 100 µM (inactive)
- GI50 (SF-539): > 100 µM (inactive)
- GI50 (SK-MEL-2): > 100 µM (inactive)
- GI50 (786-0): > 100 µM (inactive)
- GI50 (SF-268): > 100 µM (inactive)
- GI50 (CAKI-1): > 100 µM (inactive)
- GI50 (SF-295): > 100 µM (inactive)
- GI50 (OVCAR-5): > 100 µM (inactive)
- GI50 (IGROV-1): > 100 µM (inactive)
- GI50 (HCT-116): > 100 µM (inactive)
- GI50 (XF498): > 100 µM (inactive)
- GI50 (LXFL 529): > 100 µM (inactive)
- GI50 (SNB-78): > 100 µM (inactive)
- GI50 (M19-MEL): > 100 µM (inactive)
- GI50 (UO-31): > 100 µM (inactive)
- GI50 (OVCAR-8): > 100 µM (inactive)
- GI50 (KM-20L2): > 100 µM (inactive)
- GI50 (NCI-H460): > 100 µM (inactive)
- GI50 (DLD-1): > 100 µM (inactive)
- GI50 (OVCAR-3): > 100 µM (inactive)
- GI50 (HOP-18): > 100 µM (inactive)
- GI50 (SN12C): > 100 µM (inactive)
- GI50 (SK-OV-3): > 100 µM (inactive)
- GI50 (A549): > 100 µM (inactive)
- GI50 (HOP-62): > 100 µM (inactive)
- GI50 (NCI-H522): > 100 µM (inactive)
- GI50 (EKVX): > 100 µM (inactive)
- GI50 (HT-29): > 100 µM (inactive)
- GI50 (SK-MEL-28): > 100 µM (inactive)
- GI50 (MOLT-4): > 100 µM (inactive)
- GI50 (DMS-273): > 100 µM (inactive)
- GI50 (U-251): > 100 µM (inactive)
- GI50 (TK-10): > 100 µM (inactive)
- GI50 (NCI-H226): > 100 µM (inactive)
- GI50 (K562): > 100 µM (inactive)
- GI50 (SR): > 100 µM (inactive)

— ChEMBL document CHEMBL1201862, “PubChem BioAssay data set” (2004)
